Test system: FLG monomer
Experiment: FLG monomer in FLG gene mutant mice (flaky tail mice), Western blotting (Example 13)
Type: in vivo, mouse
Details: 1 μM 10 μl/ear intradermally, ear epidermis after 8 days
Protocol: In this example, the expression-increasing effect of Compound 1 (N-quinolylbenzamide derivative) on FLG monomer was confirmed by using FLG gene homozygous or heterozygous mutant mouse (Jackson Laboratory, flaky tail mice). The expression of the FLG protein was confirmed by Western blotting.
1) Compound 1 (1 μM) dissolved in ultrapure water (milliQ, EMD Millipore) was injected intradermally to left and right ears of an FLG homozygous or heterozygous mutant mouse (10 μl/ear). As a control, ultrapure water (milliQ, EMD Millipore) was injected intradermally in the same manner.
2) After 3 days, Compound 1 or ultrapure water was further injected intradermally in the same manner.
3) After 8 days, ears of each mouse were cut under anesthesia, the skin of the cut ear was peeled off by pinching cartilage, and the skin on the dermal side was soaked in PBS containing 20 mM EDTA at 37° C. for 30 minutes. Next, the epidermis of the ear was peeled off and […] of Lysis buffer (0.1 M Tris-HCl (pH 9.0), 6 M Urea, 1% 2-mercapto-ethanol, 1% SDS, 1 mM EDTA, and Protease inhibitor cocktail) were added to the epidermis, and the epidermis was homogenized with an electrically powered pestle in the same manner as in the step 4) of Example 11 to prepare a sample. The sample was subjected to electrophoresis, and then to western blotting to confirm the expression of FLG monomer. […]

CCc1ccc(OCc2ccccc2C(=O)Nc2ccc3nc(C)cc(N)c3c2)cc1.Cl [Compound 1, N-(4-Amino-2-methyl-6-quinolyl)-2-[(4-ethylphenoxy)methyl]benzamide hydrochloride]
production of FLG monomer (FLG heterozygous mutant mouse): production of the FLG monomer caused by Compound 1 was confirmed | production of FLG monomer (FLG homozygous mutant mouse): production of the FLG monomer was not observed

— patent US20150190416A1, “FILAGGRIN PRODUCTION PROMOTER, THERAPEUTIC AGENT FOR DISEASES ASSOCIATED WITH REDUCTION IN PRODUCTION OF FILAGGRIN, AND METHOD FOR SCREENING FOR SAID THERAPEUTIC AGENT” (KYOTO UNIVERSITY, priority 2012, published 2015)
